Results reported in patent publication US8293774B2, “Optically active (R)-aryloxypropionic acid amides and herbicidal composition comprising same” (Kyung Nong Corporation, priority 2007, dated 2012).

What was measured:
Barnyard grass = experiment: Weed control test, 4-leaf stage plants (Test Example 1, Table 8); type: in vivo, Echinoch crus-galli Beauv. var. caudata Kitagawa
[1] = tested on: DIGSA (Digitaria Sanguinalis (L.) SCOP, large crabgrass); experiment: Weed control test, foliage treatment (Test Example 1, Table 7); type: in vivo
Outline: (§1)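 Greenhouse pot plants in sandy loam at 20 to 30 °C, grown to the 3-leaf stage of barnyard grass. Foliage sprayed at 2,000 l/ha with a water-diluted emulsion of compound, acetone and Tween 80 (1:5:1 by weight). Damage scored visually, 1 to 100% versus untreated control, at 10 and 20 days.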

[2] = tested on: ECHOG (Echinoch crus-galli Beauv. var. caudata Kitagawa, barnyard grass); experiment: as above; type: in vivo; conditions: 3-leaf stage
Outline: as §1

[3] = tested on: SETVIR (Setaria viridis (L.) Beauv, green foxtail); experiment: as above; type: in vivo
Outline: as §1

[4] = tested on: ARTHIS (Arthraxon hispidus (Thunb.) Makino, creek grass); experiment: as above; type: in vivo
Outline: as §1

[5] = tested on: PANDI (Panium dichotomiflorum Michx, fall panicum); experiment: as above; type: in vivo
Outline: as §1

[6] = tested on: ZEAMX (Zea mays L., corn); experiment: as above; type: in vivo
Outline: as §1

[7] = tested on: SORBI (Andropogon sorghum, common sorgum); experiment: as above; type: in vivo
Outline: as §1

Rice = experiment: Weed control test, 4-leaf stage plants (Test Example 1, Table 8)
Procedure: Seeds of rice, wheat, soy bean, barley, corn, common sorgum, barnyard grass, large crabgrass, creek grass, green foxtail and fall panicum were placed in sandy loam in 600 cm^2 pots and covered with soil. After keeping the pots in a greenhouse at 20 to 30° C. allowing growth of the plants to the 3-leaf stage of the barnyard grass, 2,000 l/ha of an emulsion obtained by diluting with water a mixture of 1 part by weight of a test compound, 5 parts by weight of acetone and 1 part by weight of an emulsifying agent (Tween 80, Junsei) was applied to the surface of the foliage of the plants. The plant damage at 10 days and 20 days after the foliage treatment was visually evaluated from the level of 1 to 100% by comparison with the untreated control: […]

[8] = tested on: GLXMA (Glycine max(L.) MERR, soy bean); experiment: Weed control test, foliage treatment (Test Example 1, Table 7)
[9] = tested on: ORYSA (Oryza sativa cv. Dongjin, rice); experiment: as above
[10] = tested on: HORVU (Hordeum vulgare L., barley); experiment: as above
[11] = tested on: TRZAW (Tritium aestivum L., wheat); experiment: as above
Echinochloa oryzicola = experiment: Foliage treatment with emulsions, dry rice field conditions (Test Example 2, Table 9); type: in vivo; conditions: 150 g a.i./ha; emulsion of Formulation Example 3; division stage 1~2; 20 days after foliage treatment
Text: (§2) Seeds of rice (Nampyung rice) and barnyard grasses (Echinochloa oryzicola and Echinochloa crus-galli var. crus-galli) were placed in sandy loam of pots, covered with soil, and grown in the dry rice field conditions.
(§3) Rice (6˜6.5-leaf stage, plant height 33.2 cm) and barnyard grasses (Echinochloa oryzicola: division stage 1˜2, plant height 38.0 cm, Echinochloa crus-galli var. crus-galli: division stage 1˜2, plant height 44.1 cm) were subjected to a foliage treatment with emulsions prepared according to Formulation Example 3 by using compounds of Examples 1, 5 and 13 (purity: 99% or more), wherein the emulsions were sprayed to the plants at a dosage of the active compound of 150 g/ha.
(§4) The herbicidal effect on the barnyard grasses and harmful effect on the rice of the test compounds at 20 days and 30 days after the foliage treatment were visually evaluated as in Test Example 1 in comparison with the untreated control, and the results are shown in Table 9.

[12] = tested on: Echinochloa crus-galli var. crus-galli; experiment: as above; type: in vivo; conditions: 150 g a.i./ha; emulsion of Formulation Example 3; division stage 1~2; 20 days after foliage treatment
Text: as §2, §3, §4

rice (Nampyung rice) = experiment: Foliage treatment with emulsions, dry rice field conditions, harmful effect on rice (Test Example 2, Table 9); type: in vivo; conditions: 6~6.5-leaf stage, 150 g a.i./ha, emulsion; for Harmful effect, 20 days: 20 days after foliage treatment; for Harmful effect, 30 days: 30 days after foliage treatment
Text: as §2

For `C[C@@H](Oc1ccc(Oc2nc3ccc(Cl)cc3o2)cc1)C(=O)Nc1nc2cc(Cl)ccc2o1` [Example 1, (R)-2-[4-(6-chloro-2-benzoxazolyloxy)phenoxy]propionic acid-N-(5-chloro-2-benzoxazolyl)amide], the “Plant damage (herbicidal activity), visually evaluated, Barnyard grass” value (“Plant damage … Barnyard grass” below) (Barnyard grass; 0.025 kg/ha) was 70%, the “Plant damage … Barnyard grass” value (Barnyard grass; 0.05 kg/ha) was 90% and the “Plant damage … Barnyard grass” value (Barnyard grass; 0.1 kg/ha) was 100%. The “Plant damage … Barnyard grass” value (Barnyard grass; 0.4 kg/ha) was 100%, the pest or weed control at 25 g/ha ([1]; Digitaria sanguinalis, foliar, 0.025 kg/ha, read-out: Plant damage (herbicidal activity), visually evaluated, DIGSA) was 90% and the pest or weed control at 100 g/ha ([1]; Digitaria sanguinalis, foliar, 0.1 kg/ha, read-out: Plant damage (herbicidal activity), visually evaluated, DIGSA) was 100%. It also gave a pest or weed control at 200 g/ha ([1]; Digitaria sanguinalis, foliar, 0.2 kg/ha, read-out: Plant damage (herbicidal activity), visually evaluated, DIGSA) of 100%, a pest or weed control at 25 g/ha ([2]; Echinochloa crus-galli, foliar, 0.025 kg/ha, read-out: Plant damage (herbicidal activity), visually evaluated, ECHOG) of 95% and a pest or weed control at 100 g/ha ([2]; Echinochloa crus-galli, foliar, 0.1 kg/ha, read-out: Plant damage (herbicidal activity), visually evaluated, ECHOG) of 100%. It also gave a pest or weed control at 200 g/ha ([2]; Echinochloa crus-galli, foliar, 0.2 kg/ha, read-out: Plant damage (herbicidal activity), visually evaluated, ECHOG) of 100%, a pest or weed control at 25 g/ha ([3]; Setaria viridis, foliar, 0.025 kg/ha, read-out: Plant damage (herbicidal activity), visually evaluated, SETVIR) of 70% and a pest or weed control at 100 g/ha ([3]; Setaria viridis, foliar, 0.1 kg/ha, read-out: Plant damage (herbicidal activity), visually evaluated, SETVIR) of 100%. The pest or weed control at 200 g/ha ([3]; Setaria viridis, foliar, 0.2 kg/ha, read-out: Plant damage (herbicidal activity), visually evaluated, SETVIR) was 100%, the pest or weed control at 25 g/ha ([4]; Arthraxon hispidus, foliar, 0.025 kg/ha, read-out: Plant damage (herbicidal activity), visually evaluated, ARTHIS) was 70% and the pest or weed control at 100 g/ha ([4]; Arthraxon hispidus, foliar, 0.1 kg/ha, read-out: Plant damage (herbicidal activity), visually evaluated, ARTHIS) was 100%. It also gave a pest or weed control at 200 g/ha ([4]; Arthraxon hispidus, foliar, 0.2 kg/ha, read-out: Plant damage (herbicidal activity), visually evaluated, ARTHIS) of 100%, a pest or weed control at 25 g/ha ([5]; Panicum dichotomiflorum, foliar, 0.025 kg/ha, read-out: Plant damage (herbicidal activity), visually evaluated, PANDI) of 90% and a pest or weed control at 100 g/ha ([5]; Panicum dichotomiflorum, foliar, 0.1 kg/ha, read-out: Plant damage (herbicidal activity), visually evaluated, PANDI) of 100%. For the same molecule, the pest or weed control at 200 g/ha ([5]; Panicum dichotomiflorum, foliar, 0.2 kg/ha, read-out: Plant damage (herbicidal activity), visually evaluated, PANDI) was 100%, the plant injury at 25 g/ha ([6]; Zea mays, foliar, 0.025 kg/ha, read-out: Plant damage (herbicidal activity), visually evaluated, ZEAMX) was 30% and the plant injury at 100 g/ha ([6]; Zea mays, foliar, 0.1 kg/ha, read-out: Plant damage (herbicidal activity), visually evaluated, ZEAMX) was 100%. For the same molecule, the plant injury at 200 g/ha ([6]; Zea mays, foliar, 0.2 kg/ha, read-out: Plant damage (herbicidal activity), visually evaluated, ZEAMX) was 100%, the pest or weed control at 25 g/ha ([7]; Sorghum bicolor, foliar, 0.025 kg/ha, read-out: Plant damage (herbicidal activity), visually evaluated, SORBI) was 60% and the pest or weed control at 100 g/ha ([7]; Sorghum bicolor, foliar, 0.1 kg/ha, read-out: Plant damage (herbicidal activity), visually evaluated, SORBI) was 100%. The pest or weed control at 200 g/ha ([7]; Sorghum bicolor, foliar, 0.2 kg/ha, read-out: Plant damage (herbicidal activity), visually evaluated, SORBI) was 100%, the “Plant damage (herbicidal activity), visually evaluated, Rice” value (“Plant damage (herbicidal activity) … Rice” for short) (Rice; in vivo) was 0% and the “Plant damage (herbicidal activity), visually evaluated, GLXMA” value (“Plant damage (herbicidal activity) … GLXMA” below) ([8]; in vivo) was 0%. For the same molecule, the “Plant damage (herbicidal activity), visually evaluated, ORYSA” value (“Plant damage (herbicidal activity) … ORYSA” below) ([9]; in vivo) was 0%, the “Plant damage (herbicidal activity), visually evaluated, HORVU” value (“Plant damage (herbicidal activity) … HORVU” below) ([10]; in vivo) was 0% and the “Plant damage (herbicidal activity), visually evaluated, TRZAW” value (“Plant damage (herbicidal activity) … TRZAW” below) ([11]; in vivo) was 0%. The “Herbicidal effect (0~100), 20 days, Echinochloa oryzicola” value (Echinochloa oryzicola) was 100%, the “Herbicidal effect (0~100), 20 days, Echinochloa crus-galli var. crus-galli” value [12] was 100% and the “Harmful effect, 20 days” value (rice (Nampyung rice)) was 0%. For the same molecule, the “Harmful effect, 30 days” value (rice (Nampyung rice)) was 0%.
In the case of `CCOC(=O)[C@@H](C)Oc1ccc(Oc2nc3ccc(Cl)cc3o2)cc1` [Phenoxaprop-P-ethyl, phenoxaprop-P-ethyl, reference compound], the “Plant damage … Barnyard grass” value (Barnyard grass; 0.025 kg/ha) is reported as 90%, the “Plant damage … Barnyard grass” value (Barnyard grass; 0.05 kg/ha) is reported as 100% and the “Plant damage … Barnyard grass” value (Barnyard grass; 0.1 kg/ha) is reported as 100%. For the same molecule, the “Plant damage … Barnyard grass” value (Barnyard grass; 0.4 kg/ha) was 100%, the “Plant damage (herbicidal activity), visually evaluated, DIGSA” value (“Plant damage (herbicidal activity) … DIGSA” below) ([1]; 0.025 kg/ha) was 40% and the “Plant damage (herbicidal activity) … DIGSA” value ([1]; 0.1 kg/ha) was 100%. The “Plant damage (herbicidal activity) … DIGSA” value ([1]; 0.2 kg/ha) was 100%, the “Plant damage (herbicidal activity), visually evaluated, ECHOG” value (“Plant damage (herbicidal activity) … ECHOG” below) ([2]; 0.025 kg/ha) was 30% and the “Plant damage (herbicidal activity) … ECHOG” value ([2]; 0.1 kg/ha) was 100%. The “Plant damage (herbicidal activity) … ECHOG” value ([2]; 0.2 kg/ha) was 100%, the “Plant damage (herbicidal activity), visually evaluated, SETVIR” value (“Plant damage (herbicidal activity) … SETVIR” below) ([3]; 0.025 kg/ha) was 20% and the “Plant damage (herbicidal activity) … SETVIR” value ([3]; 0.1 kg/ha) was 100%. The “Plant damage (herbicidal activity) … SETVIR” value ([3]; 0.2 kg/ha) was 100%, the “Plant damage (herbicidal activity), visually evaluated, ARTHIS” value (“Plant damage (herbicidal activity) … ARTHIS” for short) ([4]; 0.025 kg/ha) was 30% and the “Plant damage (herbicidal activity) … ARTHIS” value ([4]; 0.1 kg/ha) was 100%. For the same molecule, the “Plant damage (herbicidal activity) … ARTHIS” value ([4]; 0.2 kg/ha) was 100%, the “Plant damage (herbicidal activity), visually evaluated, PANDI” value (from here on “Plant damage (herbicidal activity) … PANDI”) ([5]; 0.025 kg/ha) was 30% and the “Plant damage (herbicidal activity) … PANDI” value ([5]; 0.1 kg/ha) was 100%. The “Plant damage (herbicidal activity) … PANDI” value ([5]; 0.2 kg/ha) was 100%, the “Plant damage (herbicidal activity), visually evaluated, ZEAMX” value (“Plant damage (herbicidal activity) … ZEAMX” for short) ([6]; 0.025 kg/ha) was 30% and the “Plant damage (herbicidal activity) … ZEAMX” value ([6]; 0.1 kg/ha) was 100%. For the same molecule, the “Plant damage (herbicidal activity) … ZEAMX” value ([6]; 0.2 kg/ha) was 100%, the “Plant damage (herbicidal activity), visually evaluated, SORBI” value (“Plant damage (herbicidal activity) … SORBI” for short) ([7]; 0.025 kg/ha) was 50% and the “Plant damage (herbicidal activity) … SORBI” value ([7]; 0.1 kg/ha) was 100%. The “Plant damage (herbicidal activity) … SORBI” value ([7]; 0.2 kg/ha) was 100%, the “Plant damage (herbicidal activity) … Rice” value (Rice; 4-leaf stage, 0.025 kg/ha) was 20% and the “Plant damage (herbicidal activity) … Rice” value (Rice; 4-leaf stage, 0.05 kg/ha) was 30%. The “Plant damage (herbicidal activity) … Rice” value (Rice; 4-leaf stage, 0.1 kg/ha) was 70%, the “Plant damage (herbicidal activity) … Rice” value (Rice; 4-leaf stage, 0.4 kg/ha) was 80% and the “Plant damage (herbicidal activity) … GLXMA” value ([8]; soy bean, 0.025 kg/ha, foliage treatment) was 0%. The “Plant damage (herbicidal activity) … GLXMA” value ([8]; soy bean, 0.1 kg/ha, foliage treatment) was 0%, the “Plant damage (herbicidal activity) … GLXMA” value ([8]; soy bean, 0.2 kg/ha, foliage treatment) was 0% and the “Plant damage (herbicidal activity) … ORYSA” value ([9]; rice, 0.025 kg/ha, foliage treatment) was 0%. The “Plant damage (herbicidal activity) … ORYSA” value ([9]; rice, 0.1 kg/ha, foliage treatment) was 0%, the “Plant damage (herbicidal activity) … ORYSA” value ([9]; rice, 0.2 kg/ha, foliage treatment) was 0% and the “Plant damage (herbicidal activity) … HORVU” value ([10]; barley, 0.025 kg/ha, foliage treatment) was 0%. For the same molecule, the “Plant damage (herbicidal activity) … HORVU” value ([10]; barley, 0.1 kg/ha, foliage treatment) was 20%, the “Plant damage (herbicidal activity) … HORVU” value ([10]; barley, 0.2 kg/ha, foliage treatment) was 40% and the “Plant damage (herbicidal activity) … TRZAW” value ([11]; wheat, 0.025 kg/ha, foliage treatment) was 0%. The “Plant damage (herbicidal activity) … TRZAW” value ([11]; wheat, 0.1 kg/ha, foliage treatment) was 10%, the “Plant damage (herbicidal activity) … TRZAW” value ([11]; wheat, 0.2 kg/ha, foliage treatment) was 10% and the “Herbicidal effect (0~100), 20 days, Echinochloa oryzicola” value (Echinochloa oryzicola) was 100%. For the same molecule, the “Herbicidal effect (0~100), 20 days, Echinochloa crus-galli var. crus-galli” value [12] was 100%, the “Harmful effect, 20 days” value (rice (Nampyung rice)) was 23% and the “Harmful effect, 30 days” value (rice (Nampyung rice)) was 38%.
